# From patent publication US9295253B2, “Use of abscisic acid on ornamental plants” (Valent BioSciences Corporation, priority 2007, dated 2016)
# Legend:
# excised Coleus leaves = settings: applied through the petiole of excised Coleus leaves, compared to excised leaves standing in water; cited from earlier work
# potted Poinsettia plants = settings: foliar application; cited from earlier work
# Pansy = assay: Drought tolerance and side effects after ABA drench, irrigation withheld; type: in vivo
# From the text: (§1) Many different commercial ornamental crops were obtained from local retailers, or from wholesale nurseries, and transported to a greenhouse for testing. Plants were watered to saturation and allowed to stand and drain for about one hour. Plants were selected for uniformity based on leaf area and arranged in a randomized complete block design, or a completely randomized design, on the greenhouse bench. The plants were sprayed or drenched with water or treatment solution equaling about 5-10% of the pot volume. The plants were held without irrigation until all the plants wilted to a point when they were determined to be unmarketable. The plants were rated daily for the extent of wilting on a scale from 1 for no wilting to 4 for complete wilting. A rating of 2.5 was the point at which a plant was determined to be unmarketable and the previous day was recorded as the marketable life of that plant in days. The plants were rated for the extent of lower leaf yellowing or leaf or flower abscission on a scale from 1 for no yellowing or abscission to 4 for complete yellowing or abscission. A rating of 2.5 was the point at which a plant was determined to be unmarketable.
# (§2) Plants were individually rated on a daily basis for degree of wilting and other undesirable characteristics like leaf yellowing.
# Vinca = assay: as above; type: in vivo
# From the text: as §1, §2
# Marigold = assay: as above; type: in vivo; settings: drenched with 250 ppm ABA, greenhouse, no irrigation
# From the text: as §1, §2
# Impatiens = assay: as above; type: in vivo; settings: drenched with 250 ppm ABA, greenhouse, no irrigation
# From the text: as §1, §2
# Euryops = assay: as above; type: in vivo; settings: drenched with 250 ppm ABA, greenhouse, no irrigation
# From the text: as §1, §2
# Rose = assay: as above; type: in vivo; settings: drenched with 250 ppm ABA, greenhouse, no irrigation
# From the text: as §1, §2
# New Guinea Impatiens = assay: as above; type: in vivo
# From the text: as §1, §2
# Dianthus = assay: as above; type: in vivo; settings: drenched with 250 ppm ABA, greenhouse, no irrigation
# From the text: as §1, §2
# Poinsettia = assay: as above; type: in vivo; settings: drenched with 250 ppm ABA, greenhouse, no irrigation
# From the text: as §1, §2
# Chrysanthemum = assay: as above; type: in vivo; settings: drenched with 250 ppm ABA, greenhouse, no irrigation
# From the text: as §1, §2
# Pentas = assay: as above; type: in vivo; settings: drenched with 250 ppm ABA, greenhouse, no irrigation
# From the text: as §1, §2
# Lantana = assay: as above; type: in vivo; settings: drenched with 250 ppm ABA, greenhouse, no irrigation
# From the text: as §1, §2
# Gazania = assay: as above; type: in vivo; settings: drenched with 250 ppm ABA, greenhouse, no irrigation
# From the text: as §1, §2
# Alyssum = assay: as above; type: in vivo; settings: drenched with 250 ppm ABA, greenhouse, no irrigation
# From the text: as §1, §2
# Lobelia = assay: as above; type: in vivo; settings: drenched with 250 ppm ABA, greenhouse, no irrigation
# From the text: as §1, §2
# Coleus = assay: as above; type: in vivo; settings: drenched with 250 ppm ABA, greenhouse, no irrigation
# From the text: as §1, §2
# Cuphea = assay: as above; type: in vivo; settings: drenched with 250 ppm ABA, greenhouse, no irrigation
# From the text: as §1, §2
# Calibrachoa = assay: as above; type: in vivo; settings: drenched with 250 ppm ABA, greenhouse, no irrigation
# From the text: as §1, §2
# Celosia = assay: as above; type: in vivo; settings: drenched with 250 ppm ABA, greenhouse, no irrigation
# From the text: as §1, §2
# Petunia = assay: as above; type: in vivo; settings: drenched with 250 ppm ABA, greenhouse, no irrigation
# From the text: as §1, §2
# Salvia = assay: as above; type: in vivo; settings: drenched with 250 ppm ABA, greenhouse, no irrigation
# From the text: as §1, §2
# Cosmos = assay: as above; type: in vivo; settings: drenched with 250 ppm ABA, greenhouse, no irrigation
# From the text: as §1, §2
# Agapanthus = assay: as above; type: in vivo; settings: drenched with 250 ppm ABA, greenhouse, no irrigation
# From the text: as §1, §2
# Hydrangea = assay: as above; type: in vivo; settings: drenched with 250 ppm ABA, greenhouse, no irrigation
# From the text: as §1, §2
# Snapdragon = assay: as above; type: in vivo; settings: drenched with 250 ppm ABA, greenhouse, no irrigation
# From the text: as §1, §2
# [1] = drenched with 250 ppm ABA, greenhouse, no irrigation
substance,measurement,setting,value
"(S)-5-(1-hydroxy-2,6,6,-trimethyl-4-oxo-2-cyclohexen-1-yl)-3-methyl-(2Z,4E)-pentadienoic acid [ABA]",Transpiration rate,excised Coleus leaves,reduces their transpiration rate
same,Transpiration,potted Poinsettia plants,reduced the transpiration
same,Drought tolerance of treated plants (in words),Pansy; ABA application,more drought tolerant
same,Market life extension (days of additional market life compared to control plants due to delayed wilting),Pansy; [1],1.6 days
same,Drought tolerance of treated plants (in words),Vinca; ABA application,more drought tolerant
same,Market life extension (days of additional market life compared to control plants due to delayed wilting),Vinca; [1],2.5 days
same,Market life extension (days of additional market life compared to control plants due to delayed wilting),Marigold,1.9 days
same,Market life extension (days of additional market life compared to control plants due to delayed wilting),Impatiens,2.0 days
same,Market life extension (days of additional market life compared to control plants due to delayed wilting),Euryops,3.3 days
same,Market life extension (days of additional market life compared to control plants due to delayed wilting),Rose,0 days
same,Drought tolerance of treated plants (in words),New Guinea Impatiens; ABA application,much greater drought tolerance
same,Market life extension (days of additional market life compared to control plants due to delayed wilting),New Guinea Impatiens; [1],3.3 days
same,Market life extension (days of additional market life compared to control plants due to delayed wilting),Dianthus,1.6 days
same,Market life extension (days of additional market life compared to control plants due to delayed wilting),Poinsettia,2.0 days
same,Market life extension (days of additional market life compared to control plants due to delayed wilting),Chrysanthemum,2.0 days
same,Market life extension (days of additional market life compared to control plants due to delayed wilting),Pentas,2.8 days
same,Market life extension (days of additional market life compared to control plants due to delayed wilting),Lantana,2.4 days
same,Market life extension (days of additional market life compared to control plants due to delayed wilting),Gazania,0 days
same,Market life extension (days of additional market life compared to control plants due to delayed wilting),Alyssum,0 days
same,Market life extension (days of additional market life compared to control plants due to delayed wilting),Lobelia,2.5 days
same,Market life extension (days of additional market life compared to control plants due to delayed wilting),Coleus,2.3 days
same,Market life extension (days of additional market life compared to control plants due to delayed wilting),Cuphea,2.3 days
same,Market life extension (days of additional market life compared to control plants due to delayed wilting),Calibrachoa,0 days
same,Market life extension (days of additional market life compared to control plants due to delayed wilting),Celosia,2.3 days
same,Market life extension (days of additional market life compared to control plants due to delayed wilting),Petunia,3.5 days
same,Market life extension (days of additional market life compared to control plants due to delayed wilting),Salvia,1.9 days
same,Market life extension (days of additional market life compared to control plants due to delayed wilting),Cosmos,1.4 days
same,Market life extension (days of additional market life compared to control plants due to delayed wilting),Agapanthus,0 days
same,Market life extension (days of additional market life compared to control plants due to delayed wilting),Hydrangea,3.4 days
same,Market life extension (days of additional market life compared to control plants due to delayed wilting),Snapdragon,1.5 days
